Measured values taken from paper PMC11856857, “Protease-Resistant, Broad-Spectrum Antimicrobial Peptides with High Antibacterial and Antifungal Activity” (Life, 2025).
In brackets after ≈: the same amount, converted by molar mass. Where a SMILES comes first, the peptide text is derived from it.

Assays:
[1] = system: S. aureus (ATCC 29213)-infected silk suture wound; assay: Surgical site infection model; format: in vivo, Wistar rats; conditions: MICX40, 100 µL topically once, 3 h after treatment; p < 0.01
Experimental: Two McFarland S. aureus (ATCC 29213) bacteria were used for suture contamination. The 1.5 cm silk sutures (3-0) were incubated in brain heart infusion (BHI) broth at 37 °C, 150 rpm for 10 min. At the end of the incubation, the sutures were dried on sterile filter paper for 10 min. After drying, one of the sutures was placed in BHI broth, and the bacteria were measured. The number of bacteria obtained from the suture was 7 × 10^5 CFU/mL.
The rats were randomly divided into four groups consisting of seven rats per group and anesthetized with isoflurane. The back of the rat was shaved, sterilized with 70% ethanol, and two 1.5 cm full-thickness wounds were incised centrally on the dorsal midline of the neck. A 1.5 cm S. aureus (ATCC 29213)-infected 3-0 silk suture was placed into the wound incision. A staple was attached to the middle of the incision to prevent the rat from removing the infected suture. After implantation of the suture into the wound, the rats were treated topically once with 100 µL of D-TN6 (MICX40), ampicillin (MICX40), or SF. The animals were decapitated 3 h after treatment. Wound areas were dissected and placed into BHI broth. After homogenization, the bacteria on the wound were counted.

[2] = system: S. aureus (ATCC 29213) inoculated wound
C. albicans ATCC 10231 = format: cell-based, Candida albicans
HaCaT cell line = format: cell-based, human; conditions: 24 h
Experimental: (§1) 3T3 and HaCaT cells were grown in DMEM consisting of 1% pen/strep and 10% FBS. A total of 5 × 10^4 cells were loaded into each well of a 96-well plate and incubated at 37 °C using a 5% CO2 incubator. All samples were measured in triplicate between 0.5–32 µg/mL concentrations and incubated at 37 °C for 24 h in a 5% CO2 incubator. Only cells and Mag-2 were used as negative and positive controls, respectively. After 24 h, cell cytotoxicity was evaluated using a cell proliferation kit (MTT, Roche, Basel, Switzerland) following the kit protocol and analyzed at 550 nm and 690 nm using a microplate reader (Gen5 Synergy HT BioTek). The concentration of peptides that killed 50% of the cells was determined as the IC50 in the cytotoxicity experiments.

3t3 cell line = format: cell-based, mouse; conditions: 24 h
Experimental: as §1

proteinase K = target: T1, proteinase K (Parengyodontium album, UniProt P06873); assay: Stability toward enzymatic degradation (protease resistance assay); format: in vitro ADME; conditions: peptide 1 mg/mL in TBS (50 mM Tris, 150 mM NaCl, pH 7.6) with 10% DMSO, proteinase K 1 mg/mL (30 U/mg), 37 °C, overnight (also 10 min, 30 min), HPLC at 214 nm
T1 construct: purchased Qiagen
T1 sequence (P06873 106-384): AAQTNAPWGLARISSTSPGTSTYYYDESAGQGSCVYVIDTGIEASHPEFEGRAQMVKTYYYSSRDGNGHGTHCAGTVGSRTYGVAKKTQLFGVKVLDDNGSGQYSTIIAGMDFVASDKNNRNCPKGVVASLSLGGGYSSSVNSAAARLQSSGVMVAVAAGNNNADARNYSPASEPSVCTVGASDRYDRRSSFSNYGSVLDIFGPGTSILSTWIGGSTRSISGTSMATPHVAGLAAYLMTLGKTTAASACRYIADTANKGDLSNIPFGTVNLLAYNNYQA
Experimental: Peptide solutions were prepared at a final concentration of 1 mg/mL in TBS buffer (50 mM Tris, 150 mM NaCl, pH 7.6) including 10% DMSO. The proteinase K solution was adjusted to 1 mg/mL (enzyme activity = 30 U/mg). The peptide solution was then incubated at 37 °C overnight in an orbital shaker. After incubation, the reaction was blocked by adding 1% TFA (100 µL) in water. Peptide solutions with/without the proteinase K enzyme were analyzed at 214 nm using HPLC with an analytic column (AdvanceBio Peptide Plus, 2.1 × 150 mm, 2.7 µm, LC column, Agilent Technologies, Santa Clara, CA, USA) following the linear gradient method (30 min in a range of 5–80% acetonitrile including 0.025% TFA). MIC experiments were repeated to measure biological activities after treating the peptides with proteinase K.

[3] = system: resistant Klebsiella pneumoniae (KP) strain; format: cell-based; conditions: resistant (KP) strain
[4] = system: methicillin-resistant S. aureus (MRSA)
Experimental: (§2) The antibacterial activity of the bacterial strains was determined using the EUCAST broth microdilution method [24]. Bacterial strains were streaked into the MHA and incubated at 37 °C overnight. The initial doses were adjusted to 1024 µg/mL using a peptide concentration measurement kit (Pierce™ Quantitative Fluorometric Peptide Assay, Thermo Scientific™) and serially diluted to 0.125 µg/mL. All samples were tested in triplicate [25, 26]. The antifungal activity of the Candida species was measured in accordance with the guidelines in CLSI document M27-A3 [27].

Aspergillus flavus (AF) = conditions: clinical strain AF1
Experimental: (§3) Clinically resistant bacterial strains that are classified as “ESKAPE pathogens”, including vancomycin-resistant Enterococcus faecium (VRE), methicillin-resistant S. aureus (MRSA), Klebsiella pneumoniae (KP), Acinetobacter baumannii (AB), P. aeruginosa (PA) by WHO21, multi-drug-resistant Aspergillus flavus (AF), C. albicans (CA), and C. krusei (CK), were provided by Acibadem Labmed.
as §2

[5] = system: vancomycin-resistant Enterococcus faecium (VRE)
Experimental: as §3, §2

[6] = system: Klebsiella pneumoniae (KP)
Experimental: as §2

[7] = system: Acinetobacter baumannii (AB)
Experimental: as §3, §2

[8] = system: ESKAPE pathogens, multi-drug-resistant A. flavus (AF), and C. albicans (CA) strains
Experimental: as §3, §2

[9] = MICX40 topically twice a day for 10 days, ELISA, means ± S.E.M.

Experimental for C.albicans (CA): as §2
Experimental for C.krusei (CK): as §2
Experimental for P. aeruginosa (PA): as §2

Compound: CC1(C)S[C@@H]2[C@H](NC(=O)[C@H](N)c3ccccc3)C(=O)N2[C@H]1C(=O)O [ampicillin]
- bacterial counts in wound versus control group [1]: significantly reduced
- IL1-β, liver [2, 9]: 705.7 ± 87.07
- IL1-β, serum [2, 9]: 826.9 ± 105.5
- IL1-β, wound tissue [2, 9]: 1779 ± 45.54
- IL-6, liver [2, 9]: 35.51 ± 2.82
- IL-6, serum [2, 9]: 50.02 ± 2.04
- IL-6, wound tissue [2, 9]: 77.60 ± 4.77
- TNF-α, liver [2, 9]: 107.0 ± 8.14
- TNF-α, serum [2, 9]: 212.2 ± 9.02
- TNF-α, wound tissue [2, 9]: 225.4 ± 12.19
- wound healing by day 4 versus control group ([2]; MICX40 topically twice a day, p < 0.01): significantly accelerated
- Serum ALT ([2]; rat, in vivo): 52.4 ± 3 U/L
- Serum AST ([2]; rat, in vivo): 161.6 ± 12.8 U/L
- Serum CRP ([2]; rat, in vivo): N
- Serum TB ([2]; rat, in vivo): 0.1 mg/dL
- indicators of toxicity by ALT, AST, TB, and CRP levels in serum ([2]; rat, in vivo): did not exhibit any indicators of toxicity

Compound: CC(C)C[C@@H](NC(=O)[C@H](N)CCCNC(=N)N)C(=O)N[C@H](CC(C)C)C(=O)N[C@H](CCCNC(=N)N)C(=O)N[C@H](CC(C)C)C(=O)N[C@H](CC(C)C)C(=O)N[C@H](CC(C)C)C(=O)N[C@H](CCCNC(=N)N)C(=O)N[C@H](CC(C)C)C(=O)N[C@H](CC(C)C)C(=O)N[C@H](CCCNC(=N)N)C(N)=O [D-TN6] (HELM PEPTIDE1{[dR].[dL].[dL].[dR].[dL].[dL].[dL].[dR].[dL].[dL].[dR].[am]}$$$$V2.0)
- MIC C. albicans (C. albicans ATCC 10231): 0.5 µg/mL (≈ 0.349 µM)
- IC50 HaCaT (HaCaT cell line): 19.64 µg/mL
- IC50 3t3 (3t3 cell line): 17.58 µg/mL
- Stability toward proteinase K (HPLC) (proteinase K): resistant to proteinase K
- Stability toward proteinase K (HPLC) (proteinase K; listed as D- TN6): highly protease-resistant
- MIC KP1 [3]: 0.5 µg/mL (≈ 0.349 µM)
- MIC KP2 [3]: 1 µg/mL (≈ 0.697 µM)
- MIC KP8 [3]: 1 µg/mL (≈ 0.697 µM)
- MIC KP9 [3]: 0.5 µg/mL (≈ 0.349 µM)
- MIC KP13 [3]: 0.5 µg/mL (≈ 0.349 µM)
- MIC KP22 [3]: 0.5 µg/mL (≈ 0.349 µM)
- MIC KP28 [3]: 1 µg/mL (≈ 0.697 µM)
- MIC KP29 [3]: 2 µg/mL (≈ 1.39 µM)
- MIC KP35 [3]: 8 µg/mL (≈ 5.58 µM)
- MIC KP40 [3]: 2 µg/mL (≈ 1.39 µM)
- MIC KP41 [3]: 4 µg/mL (≈ 2.79 µM)
- MIC KP42 [3]: 2 µg/mL (≈ 1.39 µM)
- MIC KP46 [3]: 2 µg/mL (≈ 1.39 µM)
- MIC KP52 [3]: 2 µg/mL (≈ 1.39 µM)
- MIC MRSA 1 ([4]; clinical strain MRSA 1): 0.5 µg/mL (≈ 0.349 µM)
- MIC MRSA 2 ([4]; clinical strain MRSA 2): 1 µg/mL (≈ 0.697 µM)
- MIC MRSA 3 ([4]; clinical strain MRSA 3): 1 µg/mL (≈ 0.697 µM)
- MIC AF1 (Aspergillus flavus (AF)): 4 µg/mL (≈ 2.79 µM)
- MIC CA 1 (C.albicans (CA); clinical strain CA 1): 2 µg/mL (≈ 1.39 µM)
- MIC CA 2 (C.albicans (CA); clinical strain CA 2): 2 µg/mL (≈ 1.39 µM)
- MIC CA 3 (C.albicans (CA); clinical strain CA 3): 1 µg/mL (≈ 0.697 µM)
- MIC VRE 1 ([5]; clinical strain VRE 1): 0.25 µg/mL (≈ 0.174 µM)
- MIC VRE 2 ([5]; clinical strain VRE 2): 0.25 µg/mL (≈ 0.174 µM)
- MIC CK 1 (C.krusei (CK); clinical strain CK 1): 2 µg/mL (≈ 1.39 µM)
- MIC CK 2 (C.krusei (CK); clinical strain CK 2): 2 µg/mL (≈ 1.39 µM)
- MIC CK 3 (C.krusei (CK); clinical strain CK 3): 2 µg/mL (≈ 1.39 µM)
- MIC KP1 [6]: 4 µg/mL (≈ 2.79 µM)
- MIC KP2 [6]: 2 µg/mL (≈ 1.39 µM)
- MIC KP 3 [6]: 1 µg/mL (≈ 0.697 µM)
- MIC KP 4 [6]: 1 µg/mL (≈ 0.697 µM)
- MIC range against clinical A. baumannii strains ([7]; AB): 0.25 to 2 µg/mL
- MIC AB1 ([7]; clinical strain AB1): 0.25 µg/mL (≈ 0.174 µM)
- MIC AB2 ([7]; clinical strain AB2): 2 µg/mL (≈ 1.39 µM)
- MIC PA1 (P. aeruginosa (PA)): 1 µg/mL (≈ 0.697 µM)
- MIC PA2 (P. aeruginosa (PA)): 1 µg/mL (≈ 0.697 µM)
- MIC PA3 (P. aeruginosa (PA)): 0.5 µg/mL (≈ 0.349 µM)
- MIC PA4 (P. aeruginosa (PA)): 1 µg/mL (≈ 0.697 µM)
- MIC range against seven species resistant to current antibiotics [8]: 0.25 to 4 µg/mL
- Serum CRP ([2]; rat, in vivo): N
- indicators of toxicity by ALT, AST, TB, and CRP levels in serum ([2]; rat, in vivo): did not exhibit any indicators of toxicity
- toxic alterations of liver tissue hepatocytes and stratified epithelium ([2]; rat, in vivo): did not exhibit any toxic alterations
